Measurements taken from patent publication US10570179B2, “Substituted urea depsipeptide analogs as activators of the CLPP endopeptidase” (priority 2016, dated 2020).
Converted amounts (≈) assume the structure as drawn. Read-outs that look alike come from different tables or passages of the source. Numbered stars: 1 amine (or outer) side, 2 acyl side, 3 side chain; on linkers, the order of the positions; unused ones are H or OH. Bridge positions count the residues as written; N and C are the ends. Square brackets hold non-standard residues; d marks the D form. Peptide text beside a SMILES is read from it. * marks the point of attachment. Piperazine(2S-CO,4-Me) = CN1CCN[C@H](C(=O)O)C1; Morpholine(3S-CO) = O=C(O)[C@@H]1COCCN1; Phe(3-Me) = Cc1cccc(C[C@H](N)C(=O)O)c1; Pro(4S-Me) = C[C@@H]1CN[C@H](C(=O)O)C1; X4 = O=C1CN([*:1])[C@H](C(=O)[*:2])CN1; Pro(4R-Me) = C[C@H]1CN[C@H](C(=O)O)C1; Hyp = O=C(O)[C@@H]1C[C@@H](O)CN1; NH(3-Cl-phenyl) = Clc1cccc(N*)c1; NH(4-Cl-phenyl) = Clc1ccc(N*)cc1; NH(4-Et-phenyl) = CCc1ccc(N*)cc1; aThr = C[C@H](O)[C@H](N)C(=O)O; Pip = O=C(O)[C@@H]1CCCCN1; CO = O=C([*:1])[*:2]

Legend:
[1] = system: E. faecails; assay: Minimal inhibitory concentration, microbroth dilution; format: cell-based; conditions: Enterococcus faecalis
Outline: (§1)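 Compound was diluted twofold in the appropriate broth. Bacterial suspension (approx. 10^5 cfu/mL) was then added in equal volume, giving a maximum test concentration of 200 μM. After aerobic overnight incubation at 37 °C, wells were inspected visually for growth.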

[2] = system: S. aureus ATCC 29213; assay: as above; format: cell-based; conditions: Staphylococcus aureus
Outline: as §1

[3] = system: MRSA NRS70; assay: as above; format: cell-based; conditions: Staphylococcus aureus
Outline: as §1

[4] = system: S. aureus USA 300; assay: as above; format: cell-based; conditions: Staphylococcus aureus
Outline: as §1

[5] = system: S. aureus ΔClpP; assay: as above; format: cell-based, Staphylococcus aureus; conditions: MIC; ClpP inactivated
Outline: as §1

[6] = biological target: T1, S. aureus ClpP (Sa-ClpP) (Staphylococcus aureus, UniProt Q2G036); assay: Casein-BODIPY digestion assay (ClpP activation); format: biochemical
T1 construct: made in house; host or cells: E. coli BL21 (DE3)

[7] = MIC, read-out: Minimal Inhibitory Concentrations (μM) E. faecails
[8] = ATCC29213, MIC, read-out: Minimal Inhibitory Concentrations (μM) S. aureus ATCC 29213
[9] = MIC, read-out: Minimal Inhibitory Concentrations (μM) MRSA NRS70
[10] = USA300, MIC, read-out: Minimal Inhibitory Concentrations (μM) S. aureus USA 300
[11] = read-out: Minimal Inhibitory Concentrations (μM) E. faecails, MIC
[12] = ATCC29213, read-out: Minimal Inhibitory Concentrations (μM) S. aureus ATCC 29213, MIC
[13] = read-out: Minimal Inhibitory Concentrations (μM) MRSA NRS70, MIC
[14] = USA300, read-out: Minimal Inhibitory Concentrations (μM) S. aureus USA 300, MIC

T1 sequence (Q2G036 whole entry): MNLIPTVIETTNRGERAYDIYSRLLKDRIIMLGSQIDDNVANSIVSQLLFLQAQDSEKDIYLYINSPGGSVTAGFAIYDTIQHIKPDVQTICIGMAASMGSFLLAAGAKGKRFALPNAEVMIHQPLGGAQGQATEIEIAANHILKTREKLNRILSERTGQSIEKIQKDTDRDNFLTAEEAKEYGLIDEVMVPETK

Structure (SMILES)	MIC [1, 7] [µM]	MIC [2, 8] [µM]	MIC [3, 9] [µM]	MIC [4, 10] [µM]	Minimal Inhibitory Concentrations (μM) S. aureus ΔClpP [5] [µM]	EC50 [6] [nM]	MIC [1, 11] [µM]	MIC [2, 12] [µM]	MIC [3, 13] [µM]	MIC [4, 14] [µM]
CCc1ccc(NC(=O)N[C@@H](Cc2cccc(C)c2)C(=O)N[C@@H]2C(=O)N3C[C@H](O)C[C@H]3C(=O)N3CCCC[C@H]3C(=O)N[C@@H](C)C(=O)N3C[C@@H](C)C[C@H]3C(=O)O[C@H]2C)cc1 [Compound 65, (S)-2-(3-(4-ETHYLPHENYL)UREIDO)-N-((2S,6S,8AS,14AS,16R,20S,21S,23AS)-16-HYDROXY-2,6,21-TRIMETHYL-5,8,14,19,23-PENTAOXOOCTADECAHYDRO-1H,5H,14H,19H-PYRIDO[2,1-I]DIPYRROLO[2,1-C:2′,1′-L][1]OXA[4,7,10,13]TETRAAZACYCLOHEXADECIN-20-YL)-3-(M-TOLYL)PROPANAMIDE] ({NH(4-Et-phenyl)-CO}-[Phe(3-Me)][aThr][Hyp][Pip]A[Pro(4S-Me)]; ester 2-C)	1.25 (≈ 1.02 µg/mL)	0.313 (≈ 0.255 µg/mL)	0.156 (≈ 0.127 µg/mL)	0.156 (≈ 0.127 µg/mL)	>20	410 ± 100	–	–	–	–
Cc1cccc(C[C@H](NC(=O)Nc2ccc(Cl)cc2)C(=O)N[C@@H]2C(=O)N3C[C@H](O)C[C@H]3C(=O)N3CCCC[C@H]3C(=O)N[C@@H](C)C(=O)N3C[C@@H](C)C[C@H]3C(=O)O[C@H]2C)c1 [Compound 66, (S)-2-(3-(4-CHLOROPHENYL)UREIDO)-N-((2S,6S,8AS,14AS,16R,20S,21S,23AS)-16-HYDROXY-2,6,21-TRIMETHYL-5,8,14,19,23-PENTAOXOOCTADECAHYDRO-1H,5H,14H,19H-PYRIDO[2,1-I]DIPYRROLO[2,1-C:2′,1′-L][1]OXA[4,7,10,13]TETRAAZACYCLOHEXADECIN-20-YL)-3-(M-TOLYL)PROPANAMIDE] ({NH(4-Cl-phenyl)-CO}-[Phe(3-Me)][aThr][Hyp][Pip]A[Pro(4S-Me)]; ester 2-C)	–	–	–	–	>20	160 ± 100	1.25 (≈ 1.03 µg/mL)	0.625 (≈ 0.514 µg/mL)	1.25 (≈ 1.03 µg/mL)	0.313 (≈ 0.257 µg/mL)
Cc1cccc(C[C@H](NC(=O)Nc2cccc(Cl)c2)C(=O)N[C@@H]2C(=O)N3C[C@H](O)C[C@H]3C(=O)N3CCCC[C@H]3C(=O)N[C@@H](C)C(=O)N3C[C@@H](C)C[C@H]3C(=O)O[C@H]2C)c1 [Compound 67, (S)-2-(3-(3-CHLOROPHENYL)UREIDO)-N-((2S,6S,8AS,14AS,16R,20S,21S,23AS)-16-HYDROXY-2,6,21-TRIMETHYL-5,8,14,19,23-PENTAOXOOCTADECAHYDRO-1H,5H,14H,19H-PYRIDO[2,1-I]DIPYRROLO[2,1-C:2′,1′-L][1]OXA[4,7,10,13]TETRAAZACYCLOHEXADECIN-20-YL)-3-(M-TOLYL)PROPANAMIDE] ({NH(3-Cl-phenyl)-CO}-[Phe(3-Me)][aThr][Hyp][Pip]A[Pro(4S-Me)]; ester 2-C)	–	–	–	–	>20	440 ± 300	5 (≈ 4.11 µg/mL)	2.5 (≈ 2.06 µg/mL)	2.5 (≈ 2.06 µg/mL)	2.5 (≈ 2.06 µg/mL)
Cc1cccc(C[C@H](NC(=O)Nc2ccc(Cl)cc2)C(=O)N[C@@H]2C(=O)N3C[C@H](O)C[C@H]3C(=O)N3CCN(C)C[C@H]3C(=O)N[C@@H](C)C(=O)N3C[C@H](C)C[C@H]3C(=O)O[C@H]2C)c1 [Compound 68, (S)-2-(3-(4-CHLOROPHENYL)UREIDO)-N-((6AS,8R,12S,13S,15AS,17R,21S,23AS)-8-HYDROXY-2,13,17,21-TETRAMETHYL-6,11,15,20,23-PENTAOXOOCTADECAHYDRO-2H,6H,11H,15H-PYRAZINO[2,1-I]DIPYRROLO[2,1-C:2′,1′-L][1]OXA[4,7,10,13]TETRAAZACYCLOHEXADECIN-12-YL)-3-(M-TOLYL)PROPANAMIDE] ({NH(4-Cl-phenyl)-CO}-[Phe(3-Me)][aThr][Hyp][Piperazine(2S-CO,4-Me)]A[Pro(4R-Me)]; ester 2-C)	–	–	–	–	>20	290 ± 100	0.625 (≈ 0.523 µg/mL)	1.25 (≈ 1.05 µg/mL)	2.5 (≈ 2.09 µg/mL)	0.625 (≈ 0.523 µg/mL)
Cc1cccc(C[C@H](NC(=O)Nc2cccc(Cl)c2)C(=O)N[C@@H]2C(=O)N3C[C@H](O)C[C@H]3C(=O)N3CCN(C)C[C@H]3C(=O)N[C@@H](C)C(=O)N3C[C@H](C)C[C@H]3C(=O)O[C@H]2C)c1 [Compound 69, (S)-2-(3-(3-CHLOROPHENYL)UREIDO)-N-((6AS,8R,12S,13S,15AS,17R,21S,23AS)-8-HYDROXY-2,13,17,21-TETRAMETHYL-6,11,15,20,23-PENTAOXOOCTADECAHYDRO-2H,6H,11H,15H-PYRAZINO[2,1-I]DIPYRROLO[2,1-C:2′,1′-L][1]OXA[4,7,10,13]TETRAAZACYCLOHEXADECIN-12-YL)-3-(M-TOLYL)PROPANAMIDE] ({NH(3-Cl-phenyl)-CO}-[Phe(3-Me)][aThr][Hyp][Piperazine(2S-CO,4-Me)]A[Pro(4R-Me)]; ester 2-C)	–	–	–	–	>20	390 ± 800	5 (≈ 4.19 µg/mL)	5 (≈ 4.19 µg/mL)	5 (≈ 4.19 µg/mL)	2.5 (≈ 2.09 µg/mL)
CCc1ccc(NC(=O)N[C@@H](Cc2cccc(C)c2)C(=O)N[C@H]2COC(=O)[C@@H]3C[C@@H](C)CN3C(=O)[C@H](C)NC(=O)[C@@H]3CCCCN3C(=O)[C@@H]3CCCN3C2=O)cc1 [Compound 70, (S)—N-((2R,6S,8AS,14AS,20S,23AS)-2,6-DIMETHYL-5,8,14,19,23-PENTAOXOOCTADECAHYDRO-1H,5H,14H,19H-PYRIDO[2,1-I]DIPYRROLO[2,1-C:2′,1′-L][1]OXA[4,7,10,13]TETRAAZACYCLOHEXADECIN-20-YL)-2-(3-(4-ETHYLPHENYL)UREIDO)-3-(M-TOLYL)PROPANAMIDE]	0.156 (≈ 0.123 µg/mL)	0.625 (≈ 0.491 µg/mL)	0.313 (≈ 0.246 µg/mL)	0.313 (≈ 0.246 µg/mL)	>20	290 ± 100	–	–	–	–
Cc1cccc(C[C@H](NC(=O)Nc2ccc(Cl)cc2)C(=O)N[C@H]2COC(=O)[C@@H]3C[C@@H](C)CN3C(=O)[C@H](C)NC(=O)[C@@H]3CCCCN3C(=O)[C@@H]3CCCN3C2=O)c1 [Compound 71, (S)-2-(3-(4-CHLOROPHENYL)UREIDO)-N-((2R,6S,8AS,14AS,20S,23AS)-2,6-DIMETHYL-5,8,14,19,23-PENTAOXOOCTADECAHYDRO-1H,5H,14H,19H-PYRIDO[2,1-I]DIPYRROLO[2,1-C:2′,1′-L][1]OXA[4,7,10,13]TETRAAZACYCLOHEXADECIN-20-YL)-3-(M-TOLYL)PROPANAMIDE]	–	–	–	–	>20	250 ± 100	0.313 (≈ 0.248 µg/mL)	0.625 (≈ 0.495 µg/mL)	0.313 (≈ 0.248 µg/mL)	0.625 (≈ 0.495 µg/mL)
Cc1cccc(C[C@H](NC(=O)Nc2ccc(Cl)cc2)C(=O)N[C@@H]2C(=O)N3C[C@H](O)C[C@H]3C(=O)N3CCOC[C@H]3C(=O)N[C@@H](C)C(=O)N3C[C@H](C)C[C@H]3C(=O)O[C@H]2C)c1 [Compound 73, (S)-2-(3-(4-CHLOROPHENYL)UREIDO)-N-((6AS,8R,12S,13S,15AS,17R,21S,23AS)-8-HYDROXY-13,17,21-TRIMETHYL-6,11,15,20,23-PENTAOXOOCTADECAHYDRO-6H,11H,15H-[1,4]OXAZINO[3,4-I]DIPYRROLO[2,1-C:2′,1′-L][1]OXA[4,7,10,13]TETRAAZACYCLOHEXADECIN-12-YL)-3-(M-TOLYL)PROPANAMIDE] ({NH(4-Cl-phenyl)-CO}-[Phe(3-Me)][aThr][Hyp][Morpholine(3S-CO)]A[Pro(4R-Me)]; ester 2-C)	–	–	–	–	>20	250 ± 100	0.625 (≈ 0.515 µg/mL)	2.5 (≈ 2.06 µg/mL)	2.5 (≈ 2.06 µg/mL)	0.625 (≈ 0.515 µg/mL)
Cc1cccc(C[C@H](NC(=O)Nc2cccc(Cl)c2)C(=O)N[C@@H]2C(=O)N3C[C@H](O)C[C@H]3C(=O)N3CCOC[C@H]3C(=O)N[C@@H](C)C(=O)N3C[C@H](C)C[C@H]3C(=O)O[C@H]2C)c1 [Compound 74, (S)-2-(3-(3-CHLOROPHENYL)UREIDO)-N-((6AS,8R,12S,13S,15AS,17R,21S,23AS)-8-HYDROXY-13,17,21-TRIMETHYL-6,11,15,20,23-PENTAOXOOCTADECAHYDRO-6H,11H,15H-[1,4]OXAZINO[3,4-I]DIPYRROLO[2,1-C:2′,1′-L][1]OXA[4,7,10,13]TETRAAZACYCLOHEXADECIN-12-YL)-3-(M-TOLYL)PROPANAMIDE] ({NH(3-Cl-phenyl)-CO}-[Phe(3-Me)][aThr][Hyp][Morpholine(3S-CO)]A[Pro(4R-Me)]; ester 2-C)	–	–	–	–	>20	250 ± 100	> 20	5 (≈ 4.12 µg/mL)	5 (≈ 4.12 µg/mL)	1.25 (≈ 1.03 µg/mL)
Cc1cccc(C[C@H](NC(=O)Nc2ccc(Cl)cc2)C(=O)N[C@@H]2C(=O)N3CCC[C@H]3C(=O)N3CC(=O)NC[C@H]3C(=O)N[C@@H](C)C(=O)N3C[C@H](C)C[C@H]3C(=O)O[C@H]2C)c1 [Compound 75, (S)-2-(3-(4-CHLOROPHENYL)UREIDO)-3-(M-TOLYL)-N-((6AS,12S,13S,15AS,17R,21S,23AS)-13,17,21-TRIMETHYL-3,6,11,15,20,23-HEXAOXOOCTADECAHYDRO-2H,6H,11H,15H-PYRAZINO[2,1-I]DIPYRROLO[2,1-C:2′,1′-L][1]OXA[4,7,10,13]TETRAAZACYCLOHEXADECIN-12-YL)PROPANAMIDE] ({NH(4-Cl-phenyl)-CO}-[Phe(3-Me)][aThr]P[X4]A[Pro(4R-Me)]; ester 2-C)	–	–	–	–	>20	1210 ± 1000	> 20	20 (≈ 16.4 µg/mL)	20 (≈ 16.4 µg/mL)	10 (≈ 8.21 µg/mL)
